Results on two molecules are retold here after US20080275226A1, “Medical Use of Paeoniflorin” (priority 2004, published 2008).

In one series the test system is permanent MCAO model. The series can be described thus: Permanent focal cerebral ischemia model (permanent MCAO). The format is in vivo, rat.
Series [1] has as its target T1, A1R (Rattus norvegicus, UniProt P25099).
T1 construct: Synaptic membranes of rat cerebral cortex are employed in the assay; from tissue; host or cells: rat cerebral cortex synaptic membranes
T1 sequence (P25099 1-326): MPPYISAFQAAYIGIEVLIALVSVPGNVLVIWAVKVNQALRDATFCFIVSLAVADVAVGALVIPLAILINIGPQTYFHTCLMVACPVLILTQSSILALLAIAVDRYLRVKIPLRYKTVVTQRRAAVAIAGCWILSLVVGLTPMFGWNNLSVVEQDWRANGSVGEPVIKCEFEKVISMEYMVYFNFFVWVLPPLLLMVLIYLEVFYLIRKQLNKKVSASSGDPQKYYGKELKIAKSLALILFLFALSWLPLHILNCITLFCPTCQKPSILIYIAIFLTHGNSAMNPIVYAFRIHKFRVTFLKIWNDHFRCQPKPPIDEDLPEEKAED
As to the kind of experiment: Competitive binding with [3H]-NECA, high-affinity site (two-site fit), rat cerebral cortex synaptic membranes. The protocol: (§1) Synaptic membranes of rat cerebral cortex are employed in the assay. After decapitation of the rat, cerebral cortex is separated and homogenized sufficiently in 1:15 (W/V) sucrose solution, after centrifuged, the supernatant is taken and centrifuged again. After discarding the supernatant, the sediment is resuspended in 1:30 (W/V) Tris-HCl buffer (50 mM, PH 7.4), homogenized, washed and then centrifuged, after repeating the wash process 3 times, the sediment is resuspended in 1:5 (W/V) Tris-HCl buffer (50 mM, PH 7.4) again and subpakaged, stored at −80° C. The protein concentration is measured by Bradford method (Bradford M M. A rapid and sensitive method for the quantitation of microgram quantities of proteins utilizing the principle of protein-dye binding. Anal Biochem. 1976; 72: 248-254.). All the above procedures are operated at 4° C.
(§2) The above model is used to evaluate the competitive binding of paeoniflorin with the A1R and A2aR receptor mixed agonist [^3H]-ethyl amide adenosine ([3H]-NECA) and the A1R receptor selective agonist [3H]-CCPA.
(§3) After decapitation of the rat, cerebral cortex was separated immediately, and put it into ice-cold physiological saline. […] The protein concentration was measured by Bradford method. […]

The next series has as its target T2, A2AR (Rattus norvegicus, UniProt P30543).
T2 construct: Synaptic membranes of rat cerebral cortex are employed in the assay; from tissue; host or cells: rat cerebral cortex synaptic membranes
The series can be described thus: Competitive binding with [3H]-NECA, low-affinity site (two-site fit), rat cerebral cortex synaptic membranes. The settings on record: two-site competition fit, site 2; 25 nmol/L [3H]-NECA; rat cerebral cortex synaptic membrane; read-out: EC502, competitive binding with [3H]-NECA. The procedure: as §1, §2, §3

The target in series [2] is T1, A1R. The series can be described thus: Competitive binding with [3H]-CCPA, rat cerebral cortex synaptic membranes. Conditions: 0.2 nmol/L [3H]-CCPA; rat cerebral cortex synaptic membrane. The protocol: as §1, §2, §3
In a further series the test system is transient MCAO rats. As to the kind of experiment: Transient focal cerebral ischemia model (transient MCAO). The format is in vivo. Conditions: transient MCAO rat.
Series [3] has as its system mouse PD model induced by MPTP. The series can be described thus: MPTP-induced mouse PD model (pole test, TH staining). The settings on record: 5 mg·kg^−1 s.c. for 11 days, C57B1/6J mice. The format is in vivo. The procedure: The mouse PD model induced by 1-methyl-4-phenyl-1,2,3,6-tetrahydro-pyridine (MPTP) is used to test the effect of paeoniflorin on the ability of climbing pole and the deletion of dopamine neuron of substantia nigra of midbrain in the PD model mouse. Male C57B1/6J mice of 20-25 g are used. The climbing pole time of the mice are measured before experiment. The mice are divided into 5 groups according to the climbing pole time and there are 8 mice in each group. Low dose and middle dose paeoniflorin are administered by subcutaneous injection for 11 days continuously, and 1-methyl-4-phenyl-1,2,3,6-tetrahydro-pyridine (MPTP) is injected intraperitoneally (ip) at 2 hours intervals for 4 times on day 8 of the experiment to induce mouse PD model.
The motor activity of the mice are measured by pole test, the mice are put on to the vertical coarse pole of 55 cm long and 8 mm diameter with head downward, and the time that the mice go downward to all the limbs contact the ground is measured (Hamaue N, Minami M, Terado M, Hirafuji M, Endo T, Machida M, Hiroshige T, Ogata A, Tashiro K, Saito H, Parvez S H. Comparative study of the effects of isatin, an endogenous MAO-inhibitor, and selegiline on bradykinesia and dopamine levels in a rat model of Parkinson's disease induced by the Japanese encephalitis virus. Neurotoxicology. 2004 January; 25(1-2):205-13.).
Male C57B1/6J mice of 20-25 g were used. The climbing pole time of the mice was measured before experiment. The mice were divided into 5 groups according to the climbing pole time and there were 8 mice in each group. Paeoniflorin (2.5 mg kg^−1, 5 mg kg^−1) were administered by subcutaneous injection for 11 days continuously, and 1-methyl-4-phenyl-1,2,3,6-tetrahydro-pyridine (MPTP) was injected intraperitoneally (ip) at 2 hours intervals for 4 times on day 8 of the experiment to induce mouse PD model. The administration schedule was as follows:
The mice were put on to the vertical coarse pole of 55 cm long and 8 mm diameter with head downward, and the time that the mice went downward to all the limbs contacted the ground was measured.
The heart was perfused with 4% paraformaldehyde to be pro-fixed, and then the cerebrum was taken out, and post-fixed with 4% formaldehyde solution for 1 week. Coronal sections were performed continuously (section thick […]). Tyrosine hydroxylase (TH) was used as the specific marker of dopamine neuron. The primary antibody was monoclonal mouse TH antibody (1:1000, Sigma), the second antibody was Alexa fluor 488 fluorescence labeled goat anti-mouse (1:1000, Molecular Probes). Photographs were taken under fluorescence microscope (Olympus DP70), and TH positive cells of substantia nigra were counted.

Series [4] in a line: Blood pressure and heart rate of conscious rat (tail sleeve sensor). The format is in vivo. Conditions: 10, 40, 160 mg kg^−1 i.v., 5 min to 2 hr after administration. The procedure: The conscious rats are used as research subject, sensors of tail sleeve are used to transduce the pressure pulse to phototriodes and convert it into corresponding blood pressure and heart rate values. When the rats calm down, their blood pressure and heart rate values are recorded as the base values. Then, physiological saline, various doses of paeoniflorin and reserpine are injected through caudal vein respectively.
The changes of blood pressure and heart rate before the administration (0 min) and after the administration (5 min to 2 hr) are recorded.
The conscious rats were used as research subject, sensor of tail sleeve were used to transduce the pressure pulse to phototriodes and converted it into corresponding blood pressure value and heart rate values. When the rats calmed down, their blood pressure and heart rate value were recorded as the base values. Then, physiological saline, paeoniflorin (10, 40, 160 mg kg^−1) and reserpine were injected through caudal vein respectively.
The changes of blood pressure and heart rate before the administration (0 min) and after the administration (5 min to 2 hr) were recorded.

“Also recorded” adds a separate entry of the source.

T2 sequence (P30543 whole entry): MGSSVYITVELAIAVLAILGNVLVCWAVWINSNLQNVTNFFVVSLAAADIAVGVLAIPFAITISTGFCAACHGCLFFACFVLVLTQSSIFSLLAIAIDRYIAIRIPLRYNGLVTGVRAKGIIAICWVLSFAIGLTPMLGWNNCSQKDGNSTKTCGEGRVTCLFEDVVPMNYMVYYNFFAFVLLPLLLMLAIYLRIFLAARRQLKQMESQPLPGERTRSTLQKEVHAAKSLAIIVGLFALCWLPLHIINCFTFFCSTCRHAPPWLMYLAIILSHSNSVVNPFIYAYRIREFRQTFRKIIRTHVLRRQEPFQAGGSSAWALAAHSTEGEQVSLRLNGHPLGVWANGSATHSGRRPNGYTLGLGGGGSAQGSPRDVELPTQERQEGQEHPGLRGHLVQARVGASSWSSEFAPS

As for `CCCn1c(=O)c2[nH]c(C3CCCC3)nc2n(CCC)c1=O` [DPCPX], in the series with permanent MCAO model (DPCPX s.c. 15 min before ischemia + paeoniflorin 10 mg·kg^−1 s.c.), the “effect of DPCPX on the protection by paeoniflorin” value was “this effect can be antagonized; also recorded: block the protection of paeoniflorin; also recorded: this effect could be inhibited”.

For “β-D-Glucopyranoside,56-[(benzoyloxy)methyl]tetrahydro-5-hydroxy-2-methyl-2,5-methano-1H-3,4-dioxacyclobuta[cd]Pentalen-1a(2H)-yl,[lar-claα,2β,3aα,5aα,5bα]] [paeoniflorin]”, the “selectivity EC502/EC501” value at A1R [1] (A1R over A2AR, [3H]-NECA two-site fit) was found to be 360 times. Further, the EC50 on A1R [1] (two-site competition fit, site 1, 25 nmol/L [3H]-NECA, rat cerebral cortex synaptic membrane, read-out: EC501, competitive binding with [3H]-NECA) was 13.9 nM; on A2AR, 5000 nM; at A1R [2], 19.8 nM. Moreover, in the series on transient MCAO rats (5 mg·kg^−1 s.c. at 15 min and 6 h after ischemia), the “neurological symptom (neurological defect score)” value is “improves the neurological symptom; also recorded: obviously improved the neurological symptom”. Besides, in the series with transient MCAO rats (5 mg·kg^−1 s.c., TTC staining), the “injury of cerebral subcortical nucleus and cerebral cortex caused by ischemia” value is on record as “significantly decreases the injury; also recorded: significantly decreased the defect”. Further, in the series with permanent MCAO model (2.5, 5, 10 mg·kg^−1 s.c., TTC staining), the “injury of cerebral subcortical nucleus and cerebral cortex caused by ischemia, dose dependence” value was “decreases the injury of cerebral subcortical nucleus and cerebral cortex caused by ischemia dose-dependently; also recorded: dose-dependently decreased the defect”. Moreover, the “deletion of dopaminergic neuron induced by MPTP (TH staining, substantia nigra)” value in series [3] is given as “antagonize the deletion of dopaminergic neuron”; in series [3] (listed as Paeoniflorin), “significantly antagonized”. The “motor dysfunction (bradykinesia) caused by MPTP, pole test” value was “significantly improve the motor dysfunction” in series [3] and “significantly antagonized” in series [3] (listed as Paeoniflorin). The “blood pressure of conscious rats” value is listed as “does not affect” in series [4] and “did not affect” in series [4] (listed as Paeoniflorin). Further, the “heart rate of conscious rats” value in series [4] is recorded as “does not affect”; in series [4] (listed as Paeoniflorin), “did not affect”.
